Results on twelve compounds are retold here after PubChem BioAssay (NCI).

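How tested: cells in 96-well plates exposed to compound for 48 hours at five concentrations. GI50 marks 50% less growth. TGI marks complete inhibition of growth.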 Bounds are passed on as bounds.

Among the test systems are NCI-H460 lung; SK-MEL-2 melanoma; U251 CNS; SN12C renal; OVCAR-5 ovarian; UACC-257 melanoma; SW-620 colon; M14 melanoma; NCI-H226 lung; LOX IMVI melanoma.
Common to all, as to experiment: NCI-60 cell line screen, 48 h

Turning to `CCCCCSc1ccc2nc(NC(=O)OCC)sc2c1`, the GI50 is 0.523 µM in the assay on NCI-H460 lung; 0.431 µM in the assay with SK-MEL-2 melanoma; 0.41 µM in the assay on U251 CNS; 0.959 µM in the assay on SN12C renal; 2.73 µM with OVCAR-5 ovarian; greater than 100 µM in the assay on UACC-257 melanoma. Besides, the GI50 in the assay with SW-620 colon was 0.453 µM; with M14 melanoma, 0.446 µM; in the assay with NCI-H226 lung, 1.95 µM; with LOX IMVI melanoma, 0.455 µM. The TGI with NCI-H460 lung is greater than 100 µM; in the assay on SK-MEL-2 melanoma, 25.3 µM; with U251 CNS it was 11 µM; with SN12C renal, greater than 100 µM; in the assay with OVCAR-5 ovarian, greater than 100 µM; with UACC-257 melanoma it was greater than 100 µM. Further, the TGI in the assay on SW-620 colon, in the assay on M14 melanoma, in the assay with NCI-H226 lung and in the assay on LOX IMVI melanoma was greater than 100 µM in each case.

With `COc1cc(OC)c(C(=O)/C=C/c2ccc(C#N)cc2)c(OC)c1`, the GI50 in the assay with NCI-H460 lung is 1.35 µM; in the assay with SK-MEL-2 melanoma, 1.46 µM; in the assay with U251 CNS, 1.81 µM; with SN12C renal, 1.82 µM; in the assay on OVCAR-5 ovarian it was 2.13 µM; in the assay on UACC-257 melanoma it was 3.35 µM. Also, the GI50 in the assay on SW-620 colon is 1.84 µM; in the assay with M14 melanoma, 1.07 µM; in the assay on NCI-H226 lung, 2.67 µM; with LOX IMVI melanoma, 1.37 µM. Also, the TGI was 3.94 µM in the assay on NCI-H460 lung; 4.43 µM in the assay with SK-MEL-2 melanoma; 7.05 µM in the assay on U251 CNS; 7.91 µM with SN12C renal; 8.4 µM in the assay with OVCAR-5 ovarian; 42.2 µM in the assay on UACC-257 melanoma. The TGI was 7.22 µM in the assay with SW-620 colon, 3.15 µM in the assay with M14 melanoma, greater than 50 µM in the assay on NCI-H226 lung and 5.47 µM with LOX IMVI melanoma.

Turning to `O=C1OC2(c3ccc(O)cc3Oc3cc(O)ccc32)c2cccc3cccc1c23`, the GI50 is 23.1 µM in the assay with NCI-H460 lung; 21.4 µM in the assay with SK-MEL-2 melanoma; 18.1 µM with U251 CNS; 22.1 µM in the assay with SN12C renal; 17.2 µM in the assay on OVCAR-5 ovarian; 23.6 µM in the assay with UACC-257 melanoma. Moreover, the GI50 with SW-620 colon was 16.5 µM; in the assay on M14 melanoma it was 22.3 µM; in the assay with NCI-H226 lung, 16.1 µM; in the assay with LOX IMVI melanoma, 18.1 µM. Further, the TGI in the assay on NCI-H460 lung is 61.4 µM; in the assay with SK-MEL-2 melanoma, 48 µM; with U251 CNS, 39.3 µM; in the assay on SN12C renal it was 82.9 µM; with OVCAR-5 ovarian, 40.7 µM; with UACC-257 melanoma it was 67.2 µM. Besides, the TGI in the assay with SW-620 colon was found to be 42.7 µM; in the assay on M14 melanoma it was 56.7 µM; with NCI-H226 lung, 52.1 µM; with LOX IMVI melanoma, 36 µM.

Turning to `COc1cc(-n2cc(-c3ccc(Cl)cc3)n(-c3ccccc3)c2=O)cc(OC)c1OC`, the GI50 in the assay on NCI-H460 lung is 14.9 µM; with SK-MEL-2 melanoma it was 17.4 µM; in the assay on U251 CNS, 23.5 µM; in the assay with SN12C renal, 23.3 µM; in the assay on OVCAR-5 ovarian it was 39.4 µM; in the assay on UACC-257 melanoma, 15.5 µM. Further, the GI50 in the assay with SW-620 colon was 27.1 µM; in the assay with M14 melanoma, 23.8 µM; in the assay with NCI-H226 lung, 29.9 µM; in the assay with LOX IMVI melanoma, 24.3 µM. For the same compound, the TGI with NCI-H460 lung was greater than 100 µM; in the assay with SK-MEL-2 melanoma, 40 µM; with U251 CNS it was greater than 100 µM; with SN12C renal, greater than 72.5 µM; in the assay with OVCAR-5 ovarian, greater than 100 µM; with UACC-257 melanoma it was 71.9 µM. Further, the TGI in the assay with SW-620 colon was greater than 100 µM; in the assay on M14 melanoma, 98.9 µM; with NCI-H226 lung, 97.1 µM; in the assay with LOX IMVI melanoma, greater than 100 µM.

For `NC(=O)c1cn(C2CC(O)C(CO)O2)c2ncnc(N)c12` (stereo not given), the GI50 is 7.69 µM with NCI-H460 lung; 10.5 µM in the assay on SK-MEL-2 melanoma; 17.7 µM in the assay on U251 CNS; 1.56 µM in the assay on SN12C renal; 9.81 µM with OVCAR-5 ovarian; 11 µM in the assay on UACC-257 melanoma. The GI50 is 2.58 µM in the assay with SW-620 colon, 3.12 µM with M14 melanoma, 3.19 µM in the assay on NCI-H226 lung and 1.2 µM in the assay with LOX IMVI melanoma. For the same compound, the TGI with NCI-H460 lung was greater than 100 µM; in the assay with SK-MEL-2 melanoma, greater than 28.2 µM; in the assay with U251 CNS it was greater than 100 µM; in the assay on SN12C renal, 31.1 µM; in the assay with OVCAR-5 ovarian, greater than 71.6 µM; in the assay on UACC-257 melanoma, greater than 63.4 µM. For the same compound, the TGI is 20.6 µM in the assay with SW-620 colon, 22.6 µM in the assay on M14 melanoma, 17.4 µM in the assay with NCI-H226 lung and 4.43 µM in the assay with LOX IMVI melanoma.

As to `COc1cccc(/C=C2\CCC(CN(C)C)C2=O)c1` (stereo not given), the TGI with NCI-H460 lung came to 35 µM; with SK-MEL-2 melanoma, 26.2 µM; in the assay on U251 CNS it was 26.5 µM; in the assay on SN12C renal, 22.8 µM; in the assay on OVCAR-5 ovarian, 29.6 µM; in the assay with UACC-257 melanoma it was 12.7 µM. The TGI turned out to be 8.52 µM in the assay on SW-620 colon, 9.62 µM with M14 melanoma, 33.6 µM in the assay on NCI-H226 lung and 3.51 µM in the assay on LOX IMVI melanoma.

In the case of `Cc1cc(-c2nc3sc(C)cn3c2/C=N/N=C(N)N)c(C)s1`, the GI50 in the assay with NCI-H460 lung was 6.18 µM; in the assay with SK-MEL-2 melanoma it was 40.8 µM; in the assay with U251 CNS, 11.2 µM; in the assay on SN12C renal it was 14 µM; in the assay on OVCAR-5 ovarian it was 13.2 µM; with UACC-257 melanoma, 22.2 µM. Moreover, the GI50 in the assay with SW-620 colon is 3.33 µM; with M14 melanoma, 1.7 µM; in the assay with NCI-H226 lung, 20.8 µM; in the assay on LOX IMVI melanoma, 13.3 µM. Also, the TGI is 21.5 µM with NCI-H460 lung; greater than 100 µM in the assay with SK-MEL-2 melanoma; 25.5 µM with U251 CNS; 28.3 µM with SN12C renal; 28.1 µM with OVCAR-5 ovarian; 44.2 µM with UACC-257 melanoma. Also, the TGI with SW-620 colon stood at 18.4 µM; in the assay with M14 melanoma it was 3.11 µM; in the assay with NCI-H226 lung, 40.8 µM; in the assay on LOX IMVI melanoma, 29.8 µM.

`Cn1cnc([N+](=O)[O-])c1S(=O)(=O)Oc1ccc(Cl)cc1`: the GI50 with NCI-H460 lung was 32.3 µM; in the assay with SK-MEL-2 melanoma it was 18.7 µM; in the assay with U251 CNS, 16.6 µM; with SN12C renal it was 13.2 µM; in the assay on OVCAR-5 ovarian, 15.6 µM; in the assay with UACC-257 melanoma, 3.59 µM. Also, the GI50 with SW-620 colon is 1.69 µM; in the assay with M14 melanoma, 2.36 µM; in the assay with NCI-H226 lung it was 18.6 µM; in the assay on LOX IMVI melanoma it was 1.73 µM. The TGI in the assay with NCI-H460 lung is greater than 100 µM; with SK-MEL-2 melanoma, 61.1 µM; with U251 CNS it was 55.8 µM; in the assay on SN12C renal it was 30.8 µM; with OVCAR-5 ovarian, 39.1 µM; with UACC-257 melanoma, 16.6 µM. The TGI is 3.29 µM in the assay with SW-620 colon, 5.21 µM in the assay on M14 melanoma, 58 µM in the assay on NCI-H226 lung and 3.57 µM in the assay on LOX IMVI melanoma.

Turning to `COc1ccc(C2(Cl)C(Cl)(C(F)(F)F)C2(Cl)C(F)(F)F)cc1` (stereo not given), the TGI in the assay on NCI-H460 lung came to 30.2 µM; with SK-MEL-2 melanoma it was 27.2 µM; in the assay with U251 CNS, 28.2 µM; in the assay on SN12C renal, 29.2 µM; in the assay with OVCAR-5 ovarian, 27 µM; in the assay on UACC-257 melanoma, 26.5 µM. Also, the TGI came to 33.1 µM in the assay with SW-620 colon, 24.2 µM in the assay with M14 melanoma, 28.9 µM in the assay with NCI-H226 lung and 20.5 µM in the assay on LOX IMVI melanoma.

In the case of `CCc1cc2c(c(OCC(F)(F)F)c(C(=O)NC3CCN(C(=O)CO)CC3)n2C)c(=O)n1CC(=O)c1ccccc1`, the GI50 in the assay on NCI-H460 lung is greater than 57.8 µM; in the assay on SK-MEL-2 melanoma, 56.1 µM; in the assay with U251 CNS, greater than 82.9 µM; in the assay with SN12C renal, greater than 100 µM; with OVCAR-5 ovarian, greater than 100 µM; with UACC-257 melanoma it was greater than 82.2 µM. Further, the GI50 with SW-620 colon is greater than 59.4 µM; in the assay with M14 melanoma it was greater than 100 µM; in the assay with NCI-H226 lung it was 97 µM; with LOX IMVI melanoma, greater than 80 µM. Moreover, the TGI with NCI-H460 lung, with SK-MEL-2 melanoma, in the assay on U251 CNS, in the assay on SN12C renal, with OVCAR-5 ovarian and with UACC-257 melanoma was greater than 100 µM each time. Also, the TGI in the assay on SW-620 colon, in the assay on M14 melanoma, in the assay on NCI-H226 lung and with LOX IMVI melanoma was greater than 100 µM throughout.

Consider `COc1ccc(C(=O)/C=C/c2cc(-c3ccc(OC)c(OC)c3)n[nH]2)cc1OC`, for which the GI50 was 0.606 µM in the assay on NCI-H460 lung; 2.46 µM in the assay with SK-MEL-2 melanoma; 1.2 µM in the assay on U251 CNS; 1.92 µM in the assay on SN12C renal; 1.76 µM in the assay on OVCAR-5 ovarian; 2.16 µM in the assay with UACC-257 melanoma. The GI50 was 1.5 µM with SW-620 colon, 1.91 µM with M14 melanoma, 1.66 µM in the assay with NCI-H226 lung and 1.29 µM with LOX IMVI melanoma. In addition, the TGI in the assay on NCI-H460 lung is 4.36 µM; with SK-MEL-2 melanoma, 5.17 µM; in the assay with U251 CNS, 2.63 µM; with SN12C renal it was 4.82 µM; in the assay with OVCAR-5 ovarian it was 5.24 µM; with UACC-257 melanoma, 5.02 µM. For the same compound, the TGI with SW-620 colon was determined as 5.41 µM; in the assay on M14 melanoma, 4.11 µM; with NCI-H226 lung it was 4.23 µM; in the assay on LOX IMVI melanoma it was 2.7 µM.

`O=Cc1ccc(-c2ccc(-c3nc4ccccc4s3)cc2)o1`: the GI50 was 76.4 µM in the assay with NCI-H460 lung; greater than 100 µM with SK-MEL-2 melanoma; 35.2 µM in the assay with U251 CNS; greater than 100 µM in the assay on SN12C renal; greater than 100 µM in the assay with OVCAR-5 ovarian; greater than 100 µM in the assay on UACC-257 melanoma. Moreover, the GI50 in the assay on SW-620 colon was 89 µM; with M14 melanoma, greater than 100 µM; in the assay with NCI-H226 lung, 5.03 µM; in the assay on LOX IMVI melanoma, 60.2 µM. Besides, the TGI in the assay on NCI-H460 lung, with SK-MEL-2 melanoma, in the assay on U251 CNS, in the assay on SN12C renal, with OVCAR-5 ovarian and with UACC-257 melanoma was greater than 100 µM in each case. Also, the TGI in the assay on SW-620 colon, in the assay with M14 melanoma, in the assay with NCI-H226 lung and in the assay with LOX IMVI melanoma was greater than 100 µM each time.
